Laboratory results from PMC10897598, “TwinF interface inhibitor FP802 stops loss of motor neurons and mitigates disease progression in a mouse model of ALS” (Cell Reports Medicine, 2024).
pIC50: −log10 of the molar value.

Columns and labels:
[1] = biological target: T1, human GluN1/GluN2B NMDARs (Homo sapiens, UniProt Q05586+Q13224); experiment: Automated patch clamp, NMDARs in HEK293 cells; assay type: cell-based; details: +40 mV; glycine 100 μM plus NMDA 40 μM; stable HEK293
T1 construct: host or cells: HEK293
T1 sequence (Q13224 27-1484, other chains not shown): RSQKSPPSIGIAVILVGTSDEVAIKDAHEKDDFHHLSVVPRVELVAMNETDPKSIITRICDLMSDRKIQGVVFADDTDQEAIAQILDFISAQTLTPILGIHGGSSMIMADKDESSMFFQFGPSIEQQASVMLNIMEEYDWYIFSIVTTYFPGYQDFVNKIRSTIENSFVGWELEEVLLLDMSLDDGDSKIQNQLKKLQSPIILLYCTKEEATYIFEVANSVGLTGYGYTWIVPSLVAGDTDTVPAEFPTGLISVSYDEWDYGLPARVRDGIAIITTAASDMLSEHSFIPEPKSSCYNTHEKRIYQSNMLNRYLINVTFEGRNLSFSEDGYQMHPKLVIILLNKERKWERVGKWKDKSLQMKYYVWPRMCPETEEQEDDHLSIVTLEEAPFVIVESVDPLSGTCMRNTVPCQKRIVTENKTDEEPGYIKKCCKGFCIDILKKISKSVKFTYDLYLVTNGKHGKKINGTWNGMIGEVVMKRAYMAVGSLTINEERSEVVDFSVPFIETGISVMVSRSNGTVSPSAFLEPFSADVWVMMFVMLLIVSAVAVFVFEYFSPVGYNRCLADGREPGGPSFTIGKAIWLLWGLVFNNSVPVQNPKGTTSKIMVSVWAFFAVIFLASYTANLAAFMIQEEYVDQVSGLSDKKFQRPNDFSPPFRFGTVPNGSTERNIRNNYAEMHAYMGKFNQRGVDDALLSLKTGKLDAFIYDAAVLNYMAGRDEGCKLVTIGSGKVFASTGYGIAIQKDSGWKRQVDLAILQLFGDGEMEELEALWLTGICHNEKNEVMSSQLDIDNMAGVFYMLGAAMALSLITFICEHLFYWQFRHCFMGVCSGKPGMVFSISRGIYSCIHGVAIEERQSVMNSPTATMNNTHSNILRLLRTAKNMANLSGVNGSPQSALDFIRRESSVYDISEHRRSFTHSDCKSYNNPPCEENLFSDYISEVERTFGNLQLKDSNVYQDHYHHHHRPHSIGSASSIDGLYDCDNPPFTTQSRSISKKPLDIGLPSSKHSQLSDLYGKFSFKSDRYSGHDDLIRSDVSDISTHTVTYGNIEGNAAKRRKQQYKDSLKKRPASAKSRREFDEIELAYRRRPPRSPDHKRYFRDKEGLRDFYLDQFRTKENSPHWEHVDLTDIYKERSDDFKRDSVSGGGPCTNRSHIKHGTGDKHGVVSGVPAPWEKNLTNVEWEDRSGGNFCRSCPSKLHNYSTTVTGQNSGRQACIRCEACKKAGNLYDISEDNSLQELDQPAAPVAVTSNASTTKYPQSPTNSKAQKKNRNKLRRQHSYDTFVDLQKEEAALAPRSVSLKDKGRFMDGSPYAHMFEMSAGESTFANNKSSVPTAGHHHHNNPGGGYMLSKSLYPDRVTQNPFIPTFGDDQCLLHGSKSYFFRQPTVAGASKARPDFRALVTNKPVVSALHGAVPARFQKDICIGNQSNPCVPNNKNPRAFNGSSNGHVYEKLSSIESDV
Procedure: (§1) Recombinant human GluN1 (UniProt ID Q05586) with GluN2A (Uniprot Q12879) or GluN2B (Uniprot Q13224) NMDARs were stably expressed under tetracycline control in HEK293 cell lines (Charles River). Voltage-clamp recordings were performed using the Sophion Qube platform which performs 384 parallel and independent patch-clamp recordings with digitally controlled microfluidics (Tecan D300) on a disposable single-hole or multi-hole QChip. The following extracellular solution was used: 145 mM NaCl, 4 mM KCl, 10 mM HEPES, 10 mM glucose, 2 mM CaCl2, 1 mM MgCl2; pH 7.4. The following intracellular solution was used: 70 mM CsF, 70 mM CsCl, 10 mM HEPES, 1 mM EGTA; 316 mOsm, pH 7.2. For analysis of channel activation kinetics, cells were held at −70 mV and stepped to −20 mV before the application of glycine (100 μM) plus NMDA (90 μM for GluN1/GluN2A and 40 μM for GluN1/GluN2B). […] Quality control thresholds were set according to the seal resistance (minimum […]), and failed experiments were excluded from the analysis. For analysis of steady state agonist IC50 values, voltage steps to +40 mV were performed in the presence and absence of agonists before and after compound application in the same cell. IC50 data were generated from agonist responses as described before.[20]
(§2) Figure S1. Analysis of IC50 values of FP802 for NMDARs in HEK293 cells. […] The effects of FP802 on NMDARs were evaluated at +40 […]

[2] = biological target: T2, human GluN1/GluN2A NMDARs (Homo sapiens, UniProt Q05586+Q12879); experiment: Automated patch clamp, NMDARs in HEK293 cells; assay type: cell-based; details: +40 mV; glycine 100 μM plus NMDA 90 μM; stable HEK293
T2 construct: host or cells: HEK293
T2 sequence (Q12879 23-1464, other chains not shown): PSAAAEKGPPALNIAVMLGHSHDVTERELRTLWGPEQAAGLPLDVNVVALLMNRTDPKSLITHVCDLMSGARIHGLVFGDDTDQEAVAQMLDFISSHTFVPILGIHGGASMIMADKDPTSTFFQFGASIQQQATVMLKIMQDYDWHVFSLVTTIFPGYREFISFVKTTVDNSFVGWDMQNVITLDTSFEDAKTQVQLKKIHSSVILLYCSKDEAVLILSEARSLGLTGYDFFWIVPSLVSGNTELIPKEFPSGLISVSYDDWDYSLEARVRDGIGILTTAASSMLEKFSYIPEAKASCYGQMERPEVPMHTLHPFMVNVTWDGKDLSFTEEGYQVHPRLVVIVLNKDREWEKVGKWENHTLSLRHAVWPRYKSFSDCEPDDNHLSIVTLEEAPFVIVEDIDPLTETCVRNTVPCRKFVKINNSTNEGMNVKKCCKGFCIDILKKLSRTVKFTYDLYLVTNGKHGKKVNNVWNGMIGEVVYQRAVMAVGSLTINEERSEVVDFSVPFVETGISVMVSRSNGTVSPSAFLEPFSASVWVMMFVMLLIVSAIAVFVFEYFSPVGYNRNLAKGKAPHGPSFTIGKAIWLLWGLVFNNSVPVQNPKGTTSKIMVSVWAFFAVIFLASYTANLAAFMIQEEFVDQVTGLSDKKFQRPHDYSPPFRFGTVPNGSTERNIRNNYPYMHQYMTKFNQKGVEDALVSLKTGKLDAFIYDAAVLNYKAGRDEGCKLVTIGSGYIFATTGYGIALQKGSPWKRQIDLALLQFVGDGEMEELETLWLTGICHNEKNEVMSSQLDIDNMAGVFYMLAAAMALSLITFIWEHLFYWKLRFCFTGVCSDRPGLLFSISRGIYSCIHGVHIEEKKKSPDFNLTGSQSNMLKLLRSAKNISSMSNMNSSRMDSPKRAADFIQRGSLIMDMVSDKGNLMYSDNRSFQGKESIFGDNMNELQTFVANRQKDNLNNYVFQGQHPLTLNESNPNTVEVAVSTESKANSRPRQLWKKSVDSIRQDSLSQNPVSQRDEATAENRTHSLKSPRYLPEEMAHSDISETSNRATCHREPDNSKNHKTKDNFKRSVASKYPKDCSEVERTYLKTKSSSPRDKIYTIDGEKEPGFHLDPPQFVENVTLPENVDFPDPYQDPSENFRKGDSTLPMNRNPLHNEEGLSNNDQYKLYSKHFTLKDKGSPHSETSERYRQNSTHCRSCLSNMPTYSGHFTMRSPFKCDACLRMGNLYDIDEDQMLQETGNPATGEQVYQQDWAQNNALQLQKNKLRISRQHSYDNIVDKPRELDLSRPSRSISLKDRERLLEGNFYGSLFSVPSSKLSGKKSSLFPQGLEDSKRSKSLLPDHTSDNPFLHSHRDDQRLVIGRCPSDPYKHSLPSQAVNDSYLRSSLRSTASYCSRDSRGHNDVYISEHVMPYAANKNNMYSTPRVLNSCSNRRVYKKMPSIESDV
Procedure: as §1, §2

[3] = test system: SOD1^G93A mice; experiment: Post-onset treatment of the SOD1G93A ALS mouse model; assay type: in vivo
From the text: Heterozygous SOD1^G93A transgenic mice expressing human SOD1^G93A mutant on a C57BL/6 background (Jackson Laboratory, 004435, RRID:IMSR_JAX:004435) were used in this study.[24]^,[34] Heterozygosity was maintained by mating heterozygous transgenic males with C57BL/6 wild-type females. The animals were provided by the interdisciplinary neurobehavioral core (INBC) at Heidelberg University. Only male wild-type mice and male transgenic mice were used in the experiments. They were housed in groups (maximally three mice/cage) in the INBC, where all behavior experiments were performed. All mice were kept in standard cages (15 cm × 21 cm × 13.5 cm) on a 12:12 h light:dark cycle with ad libitum access to food, water, and nesting material. The treatments were randomly allocated to mice within litter blocks. The experimenter was blinded to the experimental group from the implantation until all analyses were done.
A total of 83 heterozygous SOD1^G93A and 22 wild-type littermates were employed in this study. Eight WT and 12 SOD1^G93A mice were used to determine the EAAT2 protein levels in the spinal cord. Three SOD1^G93A mice were treated with FP802 to explore the concentration of FP802 in the spinal cord. Four SOD1^G93A mice were used to test the tolerability of mice to subcutaneously ALZET osmotic pump (type 2004) implantation with FP802 that allowed a continuous and constant supply of compound to the animals for 4 weeks. Eight wild-type mice were used to explore the disruption of the NMDAR/TRPM4 death signaling complex by FP802. In total, 52 SOD1^G93A mice were treated with FP802 or vehicle via ALZET osmotic pump from week 15 for 30 days (four cohorts). It was not possible to extend the treatment beyond the 30 days application period because the poor health state of many animals was incompatible with the anesthesia required for surgical implantation of a second osmotic pump. The number of animals used for experiments was specified in the figure legends. […] In addition, six wild-type littermates and 12 SOD1^G93A mice were used at week 19 and week 15, respectively, for the analysis of motor neuron survival and serum NfL levels. For the analysis of motor neuron survival, three mice (two from wild-type littermates, one from vehicle-treated SOD1^G93A mice) were excluded from the motor neuron survival because of the loss of sample during preparation.
Bodyweight and neurological scores were examined weekly starting at the onset of symptoms at week 15, which has been defined by previous studies with the same mouse line.[33]^,[34] Neurological scores of the mice were recorded as 0–4 based on the behavior of their hind limbs.[46] The humane endpoint was defined as the mouse’s inability to rectify itself in 30 s and examined daily from week 19 without knowing the treatment group.
Before experiments, mice were habituated to the experimenter and testing room by gentle handling for 1 min in 3 consecutive days. A brief video was taken in the behavior room where the SOD1^G93A mice were placed in an open chamber. On the experimental day, the mice were placed into an open arena (50 cm × 50 cm × 50 cm) for a total of 10 min experiment. The total traveled distance of each mouse was traced and analyzed with SYGNIS software, and also the rearing time was reordered without knowledge of the treatment.
The survival of motor neurons was examined by quantifying the motor neuron marker, choline acetyltransferase (ChAT)-positive neurons, and the inflammation was examined by quantifying the microglial cell marker, ionized calcium binding adaptor molecule 1 (Iba1), in the ventral horn of lumbar spinal cord (L3-L5). All control mice and SOD1 mice were perfused with 20 mL PBS followed by 20 mL of 4% paraformaldehyde in PBS. The lumbar spinal cord was dissected and post-fixed in the same solution for an additional 10 min, followed by 24 h incubation with 30% sucrose solution in PBS. […]

[4] = FP802 for 4 weeks from week 15, vs vehicle

What does the source list for `CCN(CCN)Cc1cccc(Cl)c1` [FP802]?
pIC50 [1]: < 3.60; pIC50 [2]: < 3.60; EAAT/GLT-1 expression in lumbar spinal cord ([3]; 40 mg/kg/day for 4 weeks from week 15, immunoblot): no significant effect; neurological scores ([3]; FP802 for 4 weeks from week 15 (onset), s.c. osmotic pump, vs vehicle): significantly better; body weight losses [3, 4]: lower; motor performance, total distances traveled in an open field [3, 4]: significantly improved; rearing behavior in open field [3, 4]: frequent rearing behavior; survival median (lifespan) ([3]; FP802 for 4 weeks starting at week 15, vehicle 151 days): 164 days; neuroinflammatory response, microglia marker Iba1 ([3]; ventral horn of lumbar spinal cord, week 19): not affected; serum levels of neurofilament light (NfL) chain ([3]; week 19, treatment from week 15): reduction; soma sizes of lumbar spinal motor neurons ([3]; week 19, vs control-treated SOD1G93A mice): larger; number of lumbar spinal motor neurons (ChAT-positive) ([3]; week 19 vs week 15, treatment from week 15): no additional death
